Each block holds one molecule with its values, some of them ahead of it.
Legend:
[1] = Blood spinal cord barrier opening assessed by Evan's Blue Dye spinal cord uptake quantification; format: in vivo; conditions: healthy WT mice
Procedure: (§1) A 1-cm, 1 MHz planar ultrasound transducer was coupled to the skin with ultrasound coupling gel and positioned to target the lumbar spinal cord. The peak acoustic pressure was 0.5 MPa for tolerance tests in WT mice and 0.35 MPa was sufficient for blood spinal cord disruption assessment and for ALS mouse procedures (FIG. 1). At the beginning of the sonication, 0.2 mL of microbubbles (SonoVue, Bracco®) were injected intravenously. Twenty-four mice were used to test the sonication protocol
Blood spinal cord opening was assessed on 27 WT mice with Evan's Blue Dye (EBD) spinal cord uptake quantification.
(§2) The spinal cord was removed and frozen in liquid nitrogen. • For immunohistological analysis and motor neuron count (fixed tissues), the mice were perfused transcardially with 20 mL PBS then 50 mL of 4% paraformaldehyde in phosphate buffer. The spinal cord was extracted, and placed for 4 hours in 4% paraformaldehyde for post-fixation and then cryopreserved in a 30% sucrose solution in PBS before freezing. Thirty-micron thick transverse sections were cut on a cryostat at −18° C. Floating segments of spinal cord were stored in phosphate buffered saline solution at 4° C. Motor neuron counts were determined on serial sections across the lumbar spinal cords (15-20 sections per animal) after Nissl staining. • For immunostaining, sections were incubated overnight at room temperature with the following antibodies: rabbit anti-Iba1 (1:500 Wako Chemicals), anti-GFAP (1:500 Dako anti GFAP), rat anti-CD4 (1:100, AbD Serotec), rat anti CD3 (1:100, AbD Serotec), rat anti CD8 (1:100, AbD Serotec, rabbit polyclonal to human SOD1 (1:10000, Abcam). Species specific Alexa Fluor 488, 594, 647 (1:1000 Life Technologies) were used as secondary antibodies
GraphPad (GraphPad Software, San Diego, CA) was used for all statistical analysis. Statistical significance was set at p≤0.05. […] A Log-rank P value was calculated with Mantel-Cox test to compare the survival curves and corrected with the Bonferroni coefficient.

[2] = test system: patients suffering from ALS; conditions: clinical, literature; cited from earlier work
SOD1^G93A ALS mice [3] = assay: Histological analysis of spinal cord of the ALS treated mice (immunostaining, motor neuron counts); format: in vivo
Description: The onset of disease was defined as the time point at which the mice were at peak weight before they started to lose weight due to progressive motor neuron denervation and muscle wasting, as shown in FIG. 1. The symptomatic stage was defined as the age at which the mice had lost 10% of their maximal weight and is accompanied by gait alterations and failure of hindlimb splaying reflex. This disease stage was followed by progressive paralysis. […] In each group some randomly assigned mice were sacrificed at the symptomatic stage (defined as 10% of weight loss) or at disease end stage for immunohistological analysis.
as §2
GraphPad (GraphPad Software, San Diego, CA) was used for all statistical analysis. Statistical significance was set at p≤0.05. […] Duration of early and late phases between the groups were compared by ANOVA after a normality test and followed by post-hoc Tukey-Kramer Multiple comparison test or Dunnett's multiple comparison test. Motor neuron count, immune activation and SOD1 expression were compared in different group using Kruskall Wallis test. Data are represented as Mean+SEM. Kruskal Wallis non parametric test was used to compare the total number of lymphocytes (CD4 and CD8). Survival analysis (onset disease, end-stage) was performed with Kaplan-Meier statistics. A Log-rank P value was calculated with Mantel-Cox test to compare the survival curves and corrected with the Bonferroni coefficient.

[4] = IGF1 spinal cord uptake quantification (Quantikine ELISA human IGF-1); format: in vivo; conditions: healthy WT mice
Procedure: A 1-cm, 1 MHz planar ultrasound transducer was coupled to the skin with ultrasound coupling gel and positioned to target the lumbar spinal cord. […] At the beginning of the sonication, 0.2 mL of microbubbles (SonoVue, Bracco®) were injected intravenously. Twenty-four mice were used to test the sonication protocol
Fourteen sonicated lumbar spinal cord were compared to 15 non-sonicated lumbar spinal cord
GraphPad (GraphPad Software, San Diego, CA) was used for all statistical analysis. Statistical significance was set at p≤0.05. […] Data are represented as Mean+SEM.

SOD1^G93A ALS mice [5] = assay: Clinical and survival evaluation of treated ALS mice; format: in vivo
Procedure: Eighty Mutant SOD1^G93A female mice modeling ALS [B6.Cg-Tg (SOD1^G93A) 1Gur/J] were purchased from Jackson Laboratories (stock #004435) and 120 wild type control mice (WT), with a C57B16/J genetic background. The animal protocol complied with the European laws for the protection of experimental animals and was approved by the local ethics committee. Mice were maintained on a 12:12 h dark: light cycle with food and water available ad libitum. Moisturized food pellets were supplied when mice became weak. ALS mice were hemizygous for a 12 kb genomic fragment encoding the human wild-type or mutated SOD1 gene under its endogenous promoter. Mice carrying the human SOD1 transgene were identified by PCR screening of tail DNA using mouse SOD1 forward primer (5′-[…]-3′), human SOD1 forward primer (5′-[…]-3′) and mouse and human SOD1 reverse primer (5′-[…]-3′) resulting in a ˜800 bp mouse and a ˜600 bp human SOD1 PCR product.
To represent as close as possible the clinical disease progression in humans, treatment started at the beginning of the disease and not at a presymptomatic stage. SOD1^G93A mice are a particularly severe model in terms of symptoms. The mice quickly become too weak to tolerate general anesthesia, which led us to stop treatments at 135 days of age, or 1 month of treatment (5 sessions). This corresponds approximately to the end of the early phase of the disease.
as §1
Controls and US mice received a subcutaneous injection of 0.9% saline. […]
Muscle strength of mice was assessed by three different motor tests: grip testing, inverted screen testing and wire suspension testing. […]

EBD concentration, sonicated compared to non-sonicated segments [1]: 3.4 times | EBD concentration in spinal cord, non-sonicated segments ([1]; non-sonicated segments): 41 µg/g | EBD concentration in spinal cord, sonicated segments ([1]; sonicated segments of spinal cord): 142 µg/g
Molecule: Cc1cc(-c2ccc(/N=N/c3ccc4c(S(=O)(=O)[O-])cc(S(=O)(=O)[O-])c(N)c4c3O)c(C)c2)ccc1/N=N/c1ccc2c(S(=O)(=O)[O-])cc(S(=O)(=O)[O-])c(N)c2c1O.[Na+].[Na+].[Na+].[Na+] [EBD, Evan's Blue Dye]

Molecule: Nc1nc2ccc(OC(F)(F)F)cc2s1 [riluzole, 2-amino-6-trifluoromethoxybenzothiazole]
side effects in ALS patients [2]: asthenia, spasticity and an increase in the transaminase levels

Molecule: IGF1: rhIGF1 (Mecasermine, IPSEN Pharma), Insulin-like Growth Factor 1, subcutaneous injection of 500 μg/kg
immunofluorescent area occupied by SOD1, end stage mice (SOD1^G93A ALS mice [3]; disease end stage): lowest percentage of SOD1 | number of lymphocytes (CD3+) per section (SOD1^G93A ALS mice [3]; end stage, control 11±3.6): 28.5±3.8 | astrocyte reactivity, immunoreactive area for GFAP (SOD1^G93A ALS mice [3]; stage not given, control 12±2.6, unit from FIG. 4 legend): 5.9±2.5% | immunofluorescent area occupied by SOD1, symptomatic mice (SOD1^G93A ALS mice [3]; symptomatic stage (10% weight loss)): lowest percentage of SOD1 | microglial reactivity, Iba1 immunoreactivity (SOD1^G93A ALS mice [3]; symptomatic stage, control 10.3±0.6%): 5±2.1% | number of lymphocytes (CD3+) per section (SOD1^G93A ALS mice [3]; symptomatic stage, control 13±3.5): 20±5.3 | IGF1 concentration, sonicated compared to non-sonicated [4]: 1100 times | ALS mouse survival (median age) (SOD1^G93A ALS mice [5]; SOD1^G93A mice, 5 weekly sessions from P106, control 166.5 days): 166 days | early disease phase duration (SOD1^G93A ALS mice [5]; peak weight to 10% weight loss, control 37.4±3.4, b130 gives the gain in days): 36.8±2.8 | effect of IGF1 administration on survival or functional tests (SOD1^G93A ALS mice [5]; whether or not associated with ultrasound, 0.5 mg/kg once a week, five injections): no additional effect
